# Tests used:
# [1] = test system: epileptic cortical activity induced by PTZ in guinea pigs; experiment: EEG recordings of cortical activity in PTZ-induced epilepsy; format: in vivo, guinea pig; conditions: ictal (about 2 min) and post-ictal (10, 20, 30, 50 min) periods; vinpocetine 2 mg/kg 4 h before PTZ; FIGS. 3, 4
# Experimental: (§1) Experiments were performed in pigmented adult male guinea pigs initially weighing 349±38 g. ABRs recordings were used to evaluate the hearing status of each animal and EEG recordings to evaluate changes in cortical excitability. The ABR and EEG recordings were obtained following a method that we have previously reported (Nekrassov and Sitges, 2003). The Institutional Animal Use and Care Committee approved all experimental procedures.
# (§2) Three types of recordings were performed in the anaesthetized animals, namely the ABR recordings elicited by a stimulus of high intensity (100 dB), the ABR recordings for determination of the auditory threshold and the EEG recordings.
# (§3) Eight male guinea pigs were entered into this study. PTZ was dissolved in saline and vinpocetine in a saline acidified (with HCl) adjusted to pH 4 (with NaOH). Four hours after injecting guinea pigs with vehicle (acidified saline used to dissolve vinpocetine) the animals were anaesthetized and a first set of ABR and EEG recordings was taken before the injection (i.p) of the convulsing agent, PTZ. The animals were injected with PTZ (100 mg/kg) and about 2 min after injecting PTZ (ictal period) the EEG recording was taken. Then the other series of ABR and EEG recordings were taken at specific times within the post-ictal period. After two weeks the same series of recordings was taken but instead vehicle the animals were injected with vinpocetine (2 mg/kg) 4 hours before the injection of PTZ.
# Vinpocetine inhibits all the changes induced by PTZ on the EEG. […] This dramatic change on the cortical activity induced by PTZ in the anaesthetized animals during convulsions is followed by a typical pattern of cortical activity characterized by rhythmic spike bursts of high amplitude. The duration time of this typical pattern of cortical activity, that is not accompanied by convulsions is referred as the post-ictal period.
# [2] = test system: epilepsy induced by 4-AP in guinea pigs; experiment: ABR wave parameters (amplitude, latency) in 4-AP-induced epilepsy; format: in vivo, guinea pig; conditions: 100 dB
# Experimental: as §1, §2
# (§4) Determination of ABR wave parameters. The latency and amplitude of each wave component of the ABR elicited by a stimulus of 100 dB with pure tone frequencies of 4 and 8 kHz was measured in all the ABR recordings obtained under the different experimental conditions at the specified times. The latency of each ABR wave (in ms) refers to the time interval between the onset of the auditory stimulus and the positive peak of the wave. The onset of the stimulus is indicated by the vertical arrow at the bottom of the recordings on FIG. 1. The peak amplitude (in μV) of each wave of the ABR is the difference between the positive peak of the wave and the reference baseline (trace between the stimulus and the appearance of the first ABR wave on FIG. 1).
# (§5) Student's t-test was used for the evaluation of the differences between results obtained before and at the specified times after the injection of the convulsing agents. The criterion for statistical significance for all measures was P≦0.05. All data are expressed as means±standard error of the mean. In figures and tables the symbol * is used for indicating statistic significant differences.
# (§6) Five guinea pigs were entered into the study. One hour after injecting guinea pigs with vehicle (acidified saline used to dissolve vinpocetine) the animals were anaesthetized and a first set of ABR and EEG recordings was taken before the injection (i.p) of the convulsing agent, 4-AP. The animals were injected with 4-AP (2 mg/kg) and about 20 min after injecting 4-AP (ictal period) the EEG recording was taken. Then the other series of ABR and EEG recordings were taken at specific times within the post-ictal period. After two weeks the same series of recordings were repeated but instead vehicle the animals were injected with vinpocetine (2 mg/kg) 1 hour before the injection of 4-AP.
# [3] = test system: epileptic cortical activity induced by 4-AP in guinea pigs; experiment: EEG recordings of cortical activity in 4-AP-induced epilepsy; format: in vivo, guinea pig; conditions: ictal (about 20 min) and post-ictal (30, 60, 80 min) periods; vinpocetine 2 mg/kg 1 h before 4-AP; FIGS. 6, 7
# Experimental: as §1, §2, §6
# Vinpocetine inhibits all the changes induced by 4-AP on the EEG. […] This change on the cortical activity elicited by 4-AP for the ictal period is followed by the post-ictal period characterized by isolated spikes of higher amplitude that appear on the EEG about one hour after the injection of 4-AP. […] The top traces of FIG. 6 show the characteristic EEG recordings taken before the injection of 4-AP in the animals pre-injected with vehicle (a) and in the animals pre-injected with vinpocetine (b). The changes induced by 4-AP on for the ictal period are shown in the second trace on FIG. 6a. In the vinpocetine treated animals 4-AP was unable to induce the ictal activity (second trace on FIG. 6b).
# [4] = test system: guinea pig treated with amikacin; conditions: high dose of amikacin; Nekrassov and Sitges 2000; cited from earlier work
# presynaptic Na+ channels = conditions: brain isolated nerve endings; Sitges and Nekrassov 1999; Trejo et al. 2001; cited from earlier work
# [5] = test system: epilepsy induced by PTZ in guinea pigs; experiment: ABR wave parameters (amplitude, latency) in PTZ-induced epilepsy; format: in vivo, guinea pig; conditions: 100 dB
# Experimental: as §1, §2, §4, §5, §3
# [6] = test system: hearing loss induced by 4-AP in guinea pigs; experiment: ABR (auditory) threshold in 4-AP-induced epilepsy; format: in vivo, guinea pig
# Experimental: as §1, §2
# Determination of ABR thresholds. ABR recordings elicited by stimuli of progressively lower intensity (in dB) were used for determining the hearing threshold. Threshold is defined as the lowest stimulus intensity (in dB) at which the P3 wave of the ABR could still be recorded in three consecutive trials.
# as §5, §6
# [7] = 4 kHz, 30 min after 4-AP 2 mg/kg i.p., vinpocetine 2 mg/kg or vehicle 1 h before 4-AP
# [8] = 4 kHz, 60 min after 4-AP 2 mg/kg i.p., vinpocetine 2 mg/kg or vehicle 1 h before 4-AP
# [9] = 8 kHz, 30 min after 4-AP 2 mg/kg i.p., vinpocetine 2 mg/kg or vehicle 1 h before 4-AP
# [10] = 8 kHz, 60 min after 4-AP 2 mg/kg i.p., vinpocetine 2 mg/kg or vehicle 1 h before 4-AP
smiles,measurement,setting,value
"CCOC(=O)C1=C[C@]2(CC)CCCN3CCc4c(n1c1ccccc41)[C@@H]32 [Vinpocetine, ethyl apovincamine-22-oate]",effect on changes on the cortical activity (EEG) induced by PTZ,[1],completely inhibits
same,latency of the P4 wave of the ABR,[2]; [7],3.37 ± 0.06 ms
same,latency of the P4 wave of the ABR,[2]; [8],3.54 ± 0.11 ms
same,latency of the P4 wave of the ABR,"[2]; 4 kHz, 80 min after 4-AP 2 mg/kg i.p., vinpocetine 2 mg/kg or vehicle 1 h before 4-AP",3.56 ± 0.04 ms
same,latency of the P4 wave of the ABR,"[2]; 4 kHz, 100 min after 4-AP 2 mg/kg i.p., vinpocetine 2 mg/kg or vehicle 1 h before 4-AP",3.43 ± 0.09 ms
same,latency of the P4 wave of the ABR,"[2]; 4 kHz, before 4-AP injection, 1 h after vinpocetine 2 mg/kg, 5 animals",3.45 ± 0.06 ms
same,latency of the P4 wave of the ABR,[2]; [9],3.55 ± 0.07 ms
same,latency of the P4 wave of the ABR,[2]; [10],3.45 ± 0.08 ms
same,latency of the P4 wave of the ABR,"[2]; 8 kHz, 80 min after 4-AP 2 mg/kg i.p., vinpocetine 2 mg/kg or vehicle 1 h before 4-AP",3.36 ± 0.05 ms
same,latency of the P4 wave of the ABR,"[2]; 8 kHz, 100 min after 4-AP 2 mg/kg i.p., vinpocetine 2 mg/kg or vehicle 1 h before 4-AP",3.35 ± 0.07 ms
same,latency of the P4 wave of the ABR,"[2]; 8 kHz, before 4-AP injection, 1 h after vinpocetine 2 mg/kg, 5 animals",3.48 ± 0.04 ms
same,progressive increase in the amplitude of the P3 wave of the ABR produced by 4-AP,"[2]; 8 kHz, vinpocetine 2 mg/kg 1 h before 4-AP, FIG. 5a,b",eliminated
same,reduction in P4 amplitude produced by 4-AP,"[2]; 8 kHz, vinpocetine 2 mg/kg 1 h before 4-AP, FIG. 5c,d",markedly reduced
same,effect on changes on the cortical activity (EEG) induced by 4-AP,[3],completely prevents
same,"protective action over changes in ABR waves, hearing loss and mortality induced by amikacin",[4],long term (more than half a year) protective action
same,neurotransmitter release induced by an increase in presynaptic Na+ channels permeability,presynaptic Na+ channels,selectively inhibits
same,"effect on the increase in latencies of the ABR waves P2, P3 and P4 produced by PTZ","[5]; 4 and 8 kHz, vinpocetine 2 mg/kg 4 h before PTZ, FIG. 2",inhibits the increase
same,P4 wave peak amplitude of the ABR,"[5]; 4 kHz, 10 min after PTZ 100 mg/kg i.p., vinpocetine 2 mg/kg or vehicle 4 h before PTZ",2.55 ± 0.3 μV
same,P4 wave peak amplitude of the ABR,"[5]; 4 kHz, 20 min after PTZ 100 mg/kg i.p., vinpocetine 2 mg/kg or vehicle 4 h before PTZ",2.52 ± 0.2 μV
same,P4 wave peak amplitude of the ABR,"[5]; 4 kHz, 30 min after PTZ 100 mg/kg i.p., vinpocetine 2 mg/kg or vehicle 4 h before PTZ",2.55 ± 0.2 μV
same,P4 wave peak amplitude of the ABR,"[5]; 4 kHz, 50 min after PTZ 100 mg/kg i.p., vinpocetine 2 mg/kg or vehicle 4 h before PTZ",2.52 ± 0.2 μV
same,P4 wave peak amplitude of the ABR,"[5]; 4 kHz, before PTZ injection, 4 h after vinpocetine 2 mg/kg, mean±SEM, 8 animals",2.82 ± 0.3 μV
same,P4 wave peak amplitude of the ABR,"[5]; 8 kHz, 10 min after PTZ 100 mg/kg i.p., vinpocetine 2 mg/kg or vehicle 4 h before PTZ",2.56 ± 0.1 μV
same,P4 wave peak amplitude of the ABR,"[5]; 8 kHz, 20 min after PTZ 100 mg/kg i.p., vinpocetine 2 mg/kg or vehicle 4 h before PTZ",2.71 ± 0.2 μV
same,P4 wave peak amplitude of the ABR,"[5]; 8 kHz, 30 min after PTZ 100 mg/kg i.p., vinpocetine 2 mg/kg or vehicle 4 h before PTZ",2.55 ± 0.2 μV
same,P4 wave peak amplitude of the ABR,"[5]; 8 kHz, 50 min after PTZ 100 mg/kg i.p., vinpocetine 2 mg/kg or vehicle 4 h before PTZ",2.56 ± 0.1 μV
same,P4 wave peak amplitude of the ABR,"[5]; 8 kHz, before PTZ injection, 4 h after vinpocetine 2 mg/kg, mean±SEM, 8 animals",2.69 ± 0.1 μV
same,auditory threshold,[6]; [7],11.3 ± 1.3 dB
same,auditory threshold,[6]; [8],11.3 ± 1.3 dB
same,auditory threshold,"[6]; 4 kHz, before 4-AP injection, 1 h after vinpocetine 2 mg/kg",13.8 ± 1.3 dB
same,auditory threshold,[6]; [9],−1.3 ± 2.4 dB
same,auditory threshold,[6]; [10],0.0 ± 3.5 dB
same,auditory threshold,"[6]; 8 kHz, before 4-AP injection, 1 h after vinpocetine 2 mg/kg",2.5 ± 1.4 dB
